Test systems include EKVX NSCLC; HOP-92 NSCLC; NCI/ADR-RES ovarian; TK-10 renal; CCRF-CEM leukemia; MDA-MB-435; SK-OV-3 ovarian; KM12 colon; OVCAR-3 ovarian; HCT-15 colon.
Holding throughout (experiment): NCI tumour cell line growth inhibition, 48 h

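Protocol summary: plate cells (96-well), add compound at 5 concentrations, incubate 48 h, interpolate endpoints linearly. GI50 marks 50% less growth. TGI: concentration producing complete growth inhibition.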

Consider `CN(C)C(=O)c1cc2cnc(Nc3ccc(-c4csc5c(=O)cc(N6CCNCC6)oc45)cc3)nc2n1C1CCCC1`, for which the GI50 is 1.49 µM in the assay with EKVX NSCLC; 0.517 µM in the assay on HOP-92 NSCLC; 6.9 µM with NCI/ADR-RES ovarian; 1.34 µM with TK-10 renal; 0.433 µM in the assay with CCRF-CEM leukemia; 0.94 µM in the assay on MDA-MB-435. The GI50 in the assay with SK-OV-3 ovarian is 6.21 µM; in the assay with KM12 colon it was 0.345 µM; with OVCAR-3 ovarian it was 0.871 µM; in the assay with HCT-15 colon, 1.84 µM. Moreover, the TGI in the assay with EKVX NSCLC is 6.53 µM; in the assay on HOP-92 NSCLC it was 16.5 µM; with NCI/ADR-RES ovarian it was 32.7 µM; in the assay on TK-10 renal, 14.6 µM; in the assay with MDA-MB-435 it was 6.61 µM; with SK-OV-3 ovarian, 21.2 µM. The figures for the TGI in the assay on KM12 colon, with OVCAR-3 ovarian and with HCT-15 colon were 1.58 µM, 2.72 µM and 5.79 µM, respectively.

For the molecule `Cc1cc2c3ccccc3ccc2[n+]2ccccc12`, the GI50 with EKVX NSCLC is 1.22 µM; in the assay on HOP-92 NSCLC, 2.69 µM; in the assay on NCI/ADR-RES ovarian it was above 100 µM; in the assay on TK-10 renal, 19.7 µM; in the assay with CCRF-CEM leukemia, 4.72 µM; with MDA-MB-435, 8.56 µM. Also, the GI50 in the assay on SK-OV-3 ovarian is 10.7 µM; in the assay with KM12 colon, 1.43 µM; in the assay on OVCAR-3 ovarian it was 2.28 µM; in the assay on HCT-15 colon, 37.9 µM. Besides, the TGI with EKVX NSCLC is above 33.4 µM; in the assay with HOP-92 NSCLC, 27.4 µM; in the assay with NCI/ADR-RES ovarian, above 100 µM; in the assay on TK-10 renal, above 86.8 µM; in the assay with CCRF-CEM leukemia it was 35.2 µM; in the assay on MDA-MB-435 it was 26.6 µM. Further, the TGI with SK-OV-3 ovarian was 73.3 µM; in the assay with KM12 colon, 11.6 µM; in the assay with OVCAR-3 ovarian it was 11.8 µM; in the assay on HCT-15 colon, above 100 µM.

In the case of `CC1(O)CC2(O)C=CC3=C(C(=O)c4cccc(O)c4C3=O)C2(O)C(=O)C1O` (centres undefined), the TGI with EKVX NSCLC came out at 5.99 µM; in the assay with HOP-92 NSCLC it was 2.19 µM; in the assay with NCI/ADR-RES ovarian, 20.2 µM; with TK-10 renal it was 3.12 µM; with CCRF-CEM leukemia it was 2.87 µM; in the assay with MDA-MB-435, 3.32 µM. The TGI in the assay on SK-OV-3 ovarian was determined as 28.5 µM; with KM12 colon it was 17.8 µM; in the assay with OVCAR-3 ovarian, 5.19 µM; with HCT-15 colon it was 2.98 µM.

For `COC(=O)c1ccc2c(c1)C(=O)c1c-2n(CCCN)c(=O)c2cc([N+](=O)[O-])ccc12`, the GI50 in the assay with EKVX NSCLC was 0.0811 µM; with HOP-92 NSCLC it was 0.301 µM; with NCI/ADR-RES ovarian it was below 0.029 µM; with TK-10 renal, 1.05 µM; in the assay on CCRF-CEM leukemia, below 0.01 µM; in the assay on MDA-MB-435, 0.105 µM. In addition, the GI50 in the assay with SK-OV-3 ovarian is 0.0332 µM; with KM12 colon it was 0.0675 µM; in the assay on OVCAR-3 ovarian, 0.242 µM; with HCT-15 colon, 0.0625 µM. Also, the TGI in the assay on EKVX NSCLC was determined as 0.857 µM; in the assay with HOP-92 NSCLC it was 1.9 µM; in the assay on NCI/ADR-RES ovarian it was 0.682 µM; in the assay with TK-10 renal, 2.92 µM; with CCRF-CEM leukemia it was 0.0759 µM; in the assay on MDA-MB-435, 1.44 µM. The TGI in the assay on SK-OV-3 ovarian was found to be 1.65 µM; in the assay on KM12 colon, 0.94 µM; in the assay with OVCAR-3 ovarian it was 1.55 µM; in the assay with HCT-15 colon, 0.56 µM.

For the molecule `O=C(OCC1OC(OC(=O)c2cc(O)c(O)c(OC(=O)c3cc(O)c(O)c(O)c3)c2)C(OC(=O)c2cc(O)c(O)c(OC(=O)c3cc(O)c(O)c(O)c3)c2)C(OC(=O)c2cc(O)c(O)c(OC(=O)c3cc(O)c(O)c(O)c3)c2)C1OC(=O)c1cc(O)c(O)c(OC(=O)c2cc(O)c(O)c(O)c2)c1)c1cc(O)c(O)c(OC(=O)c2cc(O)c(O)c(O)c2)c1` (centres undefined), the GI50 was 13.5 µM with EKVX NSCLC; 43.9 µM in the assay on HOP-92 NSCLC; 19.2 µM with NCI/ADR-RES ovarian; 7.46 µM with TK-10 renal; 18.2 µM in the assay with CCRF-CEM leukemia; 10.9 µM in the assay with MDA-MB-435. Moreover, the GI50 is 17.3 µM in the assay on SK-OV-3 ovarian, 7.23 µM in the assay on KM12 colon, 9.99 µM with OVCAR-3 ovarian and 9.73 µM in the assay on HCT-15 colon. Further, the TGI in the assay on EKVX NSCLC was above 50 µM; in the assay on HOP-92 NSCLC it was above 50 µM; with NCI/ADR-RES ovarian, above 50 µM; in the assay on TK-10 renal it was 28.2 µM; in the assay with CCRF-CEM leukemia, above 50 µM; with MDA-MB-435 it was 30.5 µM. Also, the TGI in the assay on SK-OV-3 ovarian was above 50 µM; with KM12 colon, 27.1 µM; in the assay with OVCAR-3 ovarian, 31.2 µM; with HCT-15 colon, above 50 µM.

Consider `C=CC(=O)N1CCC([C@@H]2CCNc3c(C(N)=O)c(-c4ccc(Oc5ccccc5)cc4)nn32)CC1`, for which the GI50 in the assay on EKVX NSCLC is 2.35 µM; in the assay on HOP-92 NSCLC, 13.6 µM; in the assay on NCI/ADR-RES ovarian, 17.8 µM; in the assay with TK-10 renal it was 0.385 µM; in the assay on CCRF-CEM leukemia, 19.4 µM; with MDA-MB-435, 17.8 µM. The GI50 is 0.338 µM in the assay with SK-OV-3 ovarian, 31.5 µM in the assay on KM12 colon, 11 µM with OVCAR-3 ovarian and 15.3 µM in the assay on HCT-15 colon. Also, the TGI with EKVX NSCLC was above 100 µM; in the assay on HOP-92 NSCLC, 43.7 µM; with NCI/ADR-RES ovarian, above 96.6 µM; in the assay with TK-10 renal, 7.77 µM; in the assay on CCRF-CEM leukemia, above 73.2 µM; in the assay on MDA-MB-435, 44.6 µM. The TGI in the assay on SK-OV-3 ovarian was determined as 14.2 µM; in the assay with KM12 colon, 98.9 µM; with OVCAR-3 ovarian, 32 µM; in the assay on HCT-15 colon it was 46.5 µM.

(Values after PubChem BioAssay (NCI).)
